The values that follow come from PMC10808720 (Frontiers in Pharmacology, 2024).

The subject of data set [1] is HAdV5-GFP. In words: HAdV time of addition assay. Format: cell-based, human adenovirus (HAdV5). The conditions noted are these: 10-fold IC50. As for the experimental part: The anti-HAdV effect of these natural compounds at different time-points was measured through a time-curve assay using 293β5 cells (3 × 10^4 cells/well in Corning black wall, clear bottom 96-well plates) infected with HAdV5-GFP (MOI 2,000 vp/cell) in the presence of 100 μL of complete DMEM containing 10-fold IC50 concentration of each comound obtained in the plaque assay for each compound or the same volume of DMSO (positive control). A standard infection curve was generated in parallel by infecting cells in the absence of compounds using 2-fold serial dilutions of the virus from an MOI of 2,000 vp/cell in order to extrapolate the GFP resulting from each molecule with its corresponding MOI.
Parallel samples of HAdV5 were incubated with or without the selected compounds on ice for 1 h. HAdV5 was then added to 293β5 cells and incubated at 37°C. Compounds were then added at the indicated time points until the last time point at 2 h. Then, the cells were incubated for an additional 48 h at 37°C and 5% CO2 before being analyzed for GFP expression using a Typhoon 9410 imager (GE Healthcare Life Sciences) and ImageQuantTL (GE Healthcare Life Sciences), as we described earlier.

The subject of a further data set is wild-type HAdV5. In words: HAdV/tubulin colocalization (confocal microscopy). It is filed as cell-based, human adenovirus (HAdV5). Particulars: 0.05 μM; 90 min after synchronized infection; A549. As for the experimental part: The coverslips were previously washed with acetone, distilled water and absolute ethanol sequentially, and washed with 1x PBS, and treated with poly-L-lysine (Merck, Darmstadt, Germany) for 1 h, and washed again twice with 1x PBS. […] The infection was synchronized for 1 h on ice, excess virus was removed, and the cells were incubated for 90 min at 37°C and 5% CO2. Finally, the cells were fixed with methanol/acetone 50% for 10 min at −20°C whereupon nonspecific unions were blocked with PBS/BSA 10% for 1 h at room temperature. The cells were then incubated with hexon protein mouse monoclonal IgG (DSHB, Iowa City, USA) and anti-gamma-tubulin antibody marked by Alexa Fluor® 647 (Abcam, Cambridge, UK) for 60 min at room temperature. After rinsing with 1x PBS, the cells were incubated with Alexa Fluor 488 goat anti-mouse IgG (Thermo Fisher Scientific, MA, USA) for 20 min at room temperature, and DAPI (Merck) was added for 5 min to stain the nucleus. Finally, coverslips were fixed on the slides with a mounting medium prepared from one part of 10x PBS and 9 parts of glycerol and stored in the dark overnight at 4°C. […] The Z-series was analyzed by first determining the region of interest and then measuring the fluorescence signal using ImageJ.

In data set [2] the test system is HAdV5-GFP. In words: microbe, parasite or virus in culture. Format: cell-based, human adenovirus (HAdV5). The conditions noted are these: Human adenovirus sp. As for the experimental part: Compounds were tested using low MOI infections (0.06 vp/cell), initially at concentrations of 10 μM and subsequently in a dose-response assay ranging from 10 μM to 2.44 nM in a plaque assay. Briefly, 293β5 cells were seeded in 6-well plates at a density of 1 × 10^6 cells per well in duplicate for each condition. When the cells reached 80%–90% confluency, they were infected with HAdV5-GFP and rocked for 2 h at 37°C. After the incubation, the inoculum was removed and the cells were washed once with PBS. Cells were then carefully overlaid with equal parts of 4 mL/well 1.6% ([…]) Difco Agar Noble (Becton, Dickinson & Co., Sparks, MD, USA) and 2× Eagle’s Minimum Essential Medium (EMEM; BioWhittaker) supplemented with 2×penicillin/streptomycin, 2× L-glutamine, and 10% FBS. The mixture also contained the compounds in the concentration ranges described above. Following incubation for 7 days at 37°C, plates were scanned with a Typhoon FLA 9000 imager (GE Healthcare Life Sciences) and the formed plaques were quantified with ImageJ ([Schneider et al., 2012]). Plaque counting was performed to calculate the 50% inhibitory concentration (IC50) of each compound using the statistical software GraphPad Prism 6.

The conditions of data set [3]: animals; ref Ray et al., 1991; Vats, 2018; Vats and Mehre, 2020; cited from earlier work.

As a reminder, the IC50 is the concentration that inhibits the measured activity by half. Usually inhibition stands for the percentage by which the read-out fell short of the control. For `C=C(C)[C@H]1Cc2c(ccc3c2O[C@@H]2COc4cc(OC)c(OC)cc4[C@@H]2C3=O)O1` [Rotenone, (2R,6aS,12aS)-8,9-dimethoxy-2-(prop-1-en-2-yl)-1,2,12,12a-tetrahydrochromeno[3,4-b]furo[2,3-h]chromen-6-(6aH)-one], the “time dependence of inhibitory activity” value with HAdV5-GFP [1] (addition up to 2 h) was “sharp loss of inhibitory activity”. Also, the “loss of inhibitory activity” value with HAdV5-GFP [1] (compound added at 10 min p.i.) was “more than 25%”; in the data set with HAdV5-GFP [1] (compound added at 40 min p.i.), “more than 60%”. The “colocalization of HAdV particles with the tubulin” value in the data set on wild-type HAdV5 is “lower level of colocalization”. Also, in the data set on HAdV5-GFP [2] (168 h, read-out: IC50 plaque assay), the 50% inhibitory concentration (IC50) turned out to be 3.9 ± 0.1 nM. Moreover, in the data set on HAdV5-GFP [2] (read-out: inhibition of plaque formation), the inhibition at 0.004 µM came to 67.8%. Further, in data set [3], the estimated lethal dose is 300 to 500 mg/kg.
